Assay: Odour Detection Threshold (ODT) / odour threshold
Settings: for ODT: Odour Detection Threshold, table of compounds of Formula I

Row | Compound | Odour threshold | ODT
1 | CC/C=C/c1ccc2c(c1)OCC(=O)CO2 [Example 1, (1′E)-7-(But-1′-enyl)-2H-benzo[b][1,4]dioxepin-3(4H)-one] | 0.00157 ng/L air | 0.00157 ng/L
2 | CC(C)C/C=C/c1ccc2c(c1)OCC(=O)CO2 [Example 2, (1′E)-7-(4′-Methylpent-1′-enyl)-2H-benzo[b][1,4]dioxepin-3(4H)-one] | 0.00025 ng/L air | 0.00025 ng/L
3 | CC(C)/C=C/c1ccc2c(c1)OCC(=O)CO2 [Example 3, (1′E)-7-(3′-Methylbut-1′-enyl)-2H-benzo[b][1,4]dioxepin-3(4H)-one] | 0.015 ng/L air | 0.015 ng/L
4 | C/C=C/C=C/c1ccc2c(c1)OCC(=O)CO2 [Example 4, (1′E,3′E)-7-(Penta-1′,3′-dienyl)-2H-benzo[b][1,4]dioxepin-3(4H)-one] | 0.000141 ng/L air | 0.000141 ng/L
5 | CCC/C=C/c1ccc2c(c1)OCC(=O)CO2 [Example 5, (1′E)-7-(Pent-1′-enyl)-2H-benzo[b][1,4]dioxepin-3(4H)-one] | 0.00314 ng/L air | 0.00314 ng/L
6 | CC(C)(C)C/C=C/c1ccc2c(c1)OCC(=O)CO2 [Example 6, (1′E)-7-(4′,4′-Dimethylpent-1′-enyl)-2H-benzo[b][1,4]dioxepin-3(4H)-one] | 0.042 ng/L air | 0.042 ng/L
7 | CC(C)=Cc1ccc2c(c1)OCC(=O)CO2 [Example 7, (1′E)-7-(2′-Methylprop-1′-enyl)-2H-benzo[b][1,4]dioxepin-3(4H)-one] | 0.42 ng/L air | 0.42 ng/L
8 | CCC(C)/C=C/c1ccc2c(c1)OCC(=O)CO2 (stereo not shown) [Example 8, (1′E)-7-(3′-Methylpent-1′-enyl)-2H-benzo[b][1,4]-dioxepin-3(4H)-one] | 0.021 ng/L air | 0.021 ng/L

Source: patent publication US20120309670A1, “7-(ALK-1'-ENYL)-2H-BENZO[B][1,4]DIOXEPIN-3(4H)-ONES AND THEIR USE IN FRAGRANCE APPLICATIONS” (Givaudan SA, priority 2010, published 2012)
